# Assay results reported in patent US20160090556A1, “PRODUCTS COMPRISING MALODOR REDUCTION MATERIALS” (The Procter & Gamble Company, priority 2014, published 2016).
# Where two headings read alike, the source gives them in different places.
# Experiments:
# [1] = Probability of Ingredient Color Instability; format: physicochemical
# [2] = Liquid dish neat product liquid-air partition coefficient; format: physicochemical; conditions: for Comment Code: Log of liquid dish neat product liquid-air partition coefficient: code letters K, L
# [3] = class code letter within Comment Code
compound,measurement,setting,value
O=C(OC1CCCCC1)c1ccccc1O [Material 482],Probability of Ingredient Color Instability (Comment Code E/F),[1]; [3],F (Probability of Ingredient Color Instability<71%)
CC(C)(C=O)CC1=CCC2CC1C2(C)C (centres unmarked) [Material 925],Probability of Ingredient Color Instability (Comment Code E/F),[1],F (Probability of Ingredient Color Instability<71%)
same,Log of liquid dish neat product liquid-air partition coefficient (Comment Code K/L),[2],K (Log of liquid dish neat product liquid-air partition coefficient greater than or equal to −7)
COC(=O)c1ccccc1N=CC(C)Cc1ccc(C(C)(C)C)cc1 (centres unmarked) [Material 1121],Comment Code: Probability of Ingredient Color Instability,"[1]; codes E/F of the Comment Code, Table 1",F (Probability of Ingredient Color Instability<71%)
CC1COC(C)(c2ccc3c(c2)C(C)(C)CCC3(C)C)O1 (centres unmarked) [Material 2],Probability of Ingredient Color Instability (Comment Code E/F),[1]; [3],F (Probability of Ingredient Color Instability<71%)
CC1=CCC(C23CCCC(C)(C2)OC3)C1(C)C (centres unmarked) [Material 571],Probability of Ingredient Color Instability (Comment Code E/F),[1],F (Probability of Ingredient Color Instability<71%)
C=C(OCC)C1C(C)(C)CC(=O)CC1(C)C [Material 182],Probability of Ingredient Color Instability (Comment Code E/F),[1]; [3],F (Probability of Ingredient Color Instability<71%)
same,Log of liquid dish neat product liquid-air partition coefficient (Comment Code K/L),[2]; [3],K (Log of liquid dish neat product liquid-air partition coefficient greater than or equal to −7)
CC1(C)C2CC=C(CC=O)C1C2 (centres unmarked) [Material 973],Probability of Ingredient Color Instability (Comment Code E/F),[1],F (Probability of Ingredient Color Instability<71%)
CC1=CCCC(C)(C)C12CCC(C)O2 (centres unmarked) [Material 1057],Probability of Ingredient Color Instability (Comment Code E/F),[1],F (Probability of Ingredient Color Instability<71%)
O=CCCC=C1CC2CC1C1CCCC21 (centres unmarked) [Material 418],Probability of Ingredient Color Instability (Comment Code E/F),[1]; [3],F (Probability of Ingredient Color Instability<71%)
same,Log of liquid dish neat product liquid-air partition coefficient (Comment Code K/L),[2]; [3],K (Log of liquid dish neat product liquid-air partition coefficient greater than or equal to −7)
CCCCCC1C(=O)CCC1C (centres unmarked) [Material 1053],Probability of Ingredient Color Instability (Comment Code E/F),[1],F (Probability of Ingredient Color Instability<71%)
CC1=CC2CC(C=O)C1CC2C(C)C (centres unmarked) [Material 142],Probability of Ingredient Color Instability (Comment Code E/F),[1]; [3],F (Probability of Ingredient Color Instability<71%)
same,Log of liquid dish neat product liquid-air partition coefficient (Comment Code K/L),[2]; [3],K (Log of liquid dish neat product liquid-air partition coefficient greater than or equal to −7)
COC(C)(C)CCCC(C)CC=O (centres unmarked) [Material 126],Probability of Ingredient Color Instability (Comment Code E/F),[1]; [3],F (Probability of Ingredient Color Instability<71%)
same,Log of liquid dish neat product liquid-air partition coefficient (Comment Code K/L),[2]; [3],K (Log of liquid dish neat product liquid-air partition coefficient greater than or equal to −7)
CC1=C2CC(C(C)(C)O)CCC2(C)CCC1 (centres unmarked) [Material 329],Probability of Ingredient Color Instability (Comment Code E/F),[1]; [3],F (Probability of Ingredient Color Instability<71%)
same,Log of liquid dish neat product liquid-air partition coefficient (Comment Code K/L),[2]; [3],K (Log of liquid dish neat product liquid-air partition coefficient greater than or equal to −7)
same,Comment Code: Log of liquid dish neat product liquid-air partition coefficient,[2],K (Log of liquid dish neat product liquid-air partition coefficient greater than or equal to −7)
CC(C)=CCCC1=CCC(C)(C=O)CC1 (centres unmarked) [Material 727],Probability of Ingredient Color Instability (Comment Code E/F),[1],F (Probability of Ingredient Color Instability<71%)
same,Log of liquid dish neat product liquid-air partition coefficient (Comment Code K/L),[2],K (Log of liquid dish neat product liquid-air partition coefficient greater than or equal to −7)
CC(C)CCCC(C)CCCC(C)C=O (centres unmarked) [Material 741],Probability of Ingredient Color Instability (Comment Code E/F),[1],F (Probability of Ingredient Color Instability<71%)
same,Log of liquid dish neat product liquid-air partition coefficient (Comment Code K/L),[2],K (Log of liquid dish neat product liquid-air partition coefficient greater than or equal to −7)
C=CC(C)(CCC=C(C)C)OC(=O)c1ccccc1N (centres unmarked) [Material 153],Probability of Ingredient Color Instability (Comment Code E/F),[1]; [3],F (Probability of Ingredient Color Instability<71%)
CCCCCCCCC(C)C=O (centres unmarked) [Material 92],Probability of Ingredient Color Instability (Comment Code E/F),[1]; [3],F (Probability of Ingredient Color Instability<71%)
CCCCCCC1=CCCC1=O [Material 209],Probability of Ingredient Color Instability (Comment Code E/F),[1]; [3],F (Probability of Ingredient Color Instability<71%)
COc1ccc(COC(=O)Cc2ccccc2)cc1 [Material 663],Probability of Ingredient Color Instability (Comment Code E/F),[1],F (Probability of Ingredient Color Instability<71%)
O=C1CCCCCCCCCCCC(=O)OCCO1 [Material 378],Probability of Ingredient Color Instability (Comment Code E/F),[1]; [3],F (Probability of Ingredient Color Instability<71%)
O=C1CCCCCCCCCCC(=O)OCCO1 [Material 485],Probability of Ingredient Color Instability (Comment Code E/F),[1]; [3],F (Probability of Ingredient Color Instability<71%)
C=CC(C)(O)CCC=C(C)CCC=C(C)CCC=C(C)C (centres unmarked) [Material 303],Probability of Ingredient Color Instability (Comment Code E/F),[1]; [3],F (Probability of Ingredient Color Instability<71%)
CCCCCC=C1CCCC1=O [Material 850],Probability of Ingredient Color Instability (Comment Code E/F),[1],F (Probability of Ingredient Color Instability<71%)
CCC(C)(C)C1CCC(=O)CC1 [Material 21],Probability of Ingredient Color Instability (Comment Code E/F),[1]; [3],F (Probability of Ingredient Color Instability<71%)
O=CC1CCC2C3CCC(C3)C12 (centres unmarked) [Material 130],Probability of Ingredient Color Instability (Comment Code E/F),[1]; [3],F (Probability of Ingredient Color Instability<71%)
CC1=CC(C)C(C=O)C(C)C1 (centres unmarked) [Material 218],Probability of Ingredient Color Instability (Comment Code E/F),[1]; [3],F (Probability of Ingredient Color Instability<71%)
CC(C)=CCCC(C)=CCOC(=O)Cc1ccccc1 [Material 300],Probability of Ingredient Color Instability (Comment Code E/F),[1]; [3],F (Probability of Ingredient Color Instability<71%)
CCCCCCCC(C)=O [Material 840],Probability of Ingredient Color Instability (Comment Code E/F),[1],F (Probability of Ingredient Color Instability<71%)
CCC(=O)OCC(=O)OC(C)C1CCCC(C)(C)C1 (centres unmarked) [Material 1009],Probability of Ingredient Color Instability (Comment Code E/F),[1],F (Probability of Ingredient Color Instability<71%)
CC=Cc1ccc(OCc2ccccc2)c(OC)c1 [Material 212],Probability of Ingredient Color Instability (Comment Code E/F),[1]; [3],F (Probability of Ingredient Color Instability<71%)
COc1c2ccoc2c(OC)c2oc(=O)ccc12 [Material 199],Probability of Ingredient Color Instability (Comment Code E/F),[1]; [3],F (Probability of Ingredient Color Instability<71%)
CCCCCCCC1CCCC1=O (centres unmarked) [Material 362],Probability of Ingredient Color Instability (Comment Code E/F),[1]; [3],F (Probability of Ingredient Color Instability<71%)
COC(=O)c1ccccc1NC(O)CC(C)c1ccccc1 (centres unmarked) [Material 1093],Probability of Ingredient Color Instability (Comment Code E/F),[1],F (Probability of Ingredient Color Instability<71%)
CCCCCCCCCC(C)=O [Material 102],Probability of Ingredient Color Instability (Comment Code E/F),[1]; [3],F (Probability of Ingredient Color Instability<71%)
CCCCCCC1CCCC1=O (centres unmarked) [Material 189],Probability of Ingredient Color Instability (Comment Code E/F),[1]; [3],F (Probability of Ingredient Color Instability<71%)
Cc1ccc(OC(=O)Cc2ccccc2)cc1 [Material 998],Probability of Ingredient Color Instability (Comment Code E/F),[1],F (Probability of Ingredient Color Instability<71%)
CCCCCCC(=O)CC [Material 394],Probability of Ingredient Color Instability (Comment Code E/F),[1]; [3],F (Probability of Ingredient Color Instability<71%)
CCCC(O)Cc1ccccc1 (centres unmarked) [Material 730],Log of liquid dish neat product liquid-air partition coefficient (Comment Code K/L),[2],K (Log of liquid dish neat product liquid-air partition coefficient greater than or equal to −7)
CC(=O)OC(C)CC/C=C(\C)CCC=C(C)C (centres unmarked) [Material 890],Log of liquid dish neat product liquid-air partition coefficient (Comment Code K/L),[2],K (Log of liquid dish neat product liquid-air partition coefficient greater than or equal to −7)
C[C@@H]1CCC=C2CC[C@@H](C(C)(C)O)C[C@]21C [Material 1107],Log of liquid dish neat product liquid-air partition coefficient (Comment Code K/L),[2],K (Log of liquid dish neat product liquid-air partition coefficient greater than or equal to −7)
same,Comment Code: Log of liquid dish neat product liquid-air partition coefficient,[2],K (Log of liquid dish neat product liquid-air partition coefficient greater than or equal to −7)
CC(C)=C1CCC2=CC(=O)CC(C)C2(C)C1 (centres unmarked) [Material 684],Log of liquid dish neat product liquid-air partition coefficient (Comment Code K/L),[2],K (Log of liquid dish neat product liquid-air partition coefficient greater than or equal to −7)
same,Comment Code: Log of liquid dish neat product liquid-air partition coefficient,[2],K (Log of liquid dish neat product liquid-air partition coefficient greater than or equal to −7)
C=CCc1cc(OC)c2c(c1)OCO2 [Material 37],Log of liquid dish neat product liquid-air partition coefficient (Comment Code K/L),[2]; [3],K (Log of liquid dish neat product liquid-air partition coefficient greater than or equal to −7)
CCC(=O)OC(C)(C)C1CC=C(C)CC1 (centres unmarked) [Material 686],Log of liquid dish neat product liquid-air partition coefficient (Comment Code K/L),[2],K (Log of liquid dish neat product liquid-air partition coefficient greater than or equal to −7)
C/C=C/CCC1CCCC(=O)O1 (centres unmarked) [Material 187],Probability of Ingredient Color Instability (Comment Code E/F),[1]; [3],F (Probability of Ingredient Color Instability<71%)
CC(=O)OCCC1=CCC2CC1C2(C)C (centres unmarked) [Material 47],Log of liquid dish neat product liquid-air partition coefficient (Comment Code K/L),[2]; [3],K (Log of liquid dish neat product liquid-air partition coefficient greater than or equal to −7)
C=CC(C)(CCC=C(C)C)OC(=O)c1ccccc1 (centres unmarked) [Material 152],Probability of Ingredient Color Instability (Comment Code E/F),[1]; [3],F (Probability of Ingredient Color Instability<71%)
CCCCCCCCC=CC#N [Material 827],Log of liquid dish neat product liquid-air partition coefficient (Comment Code K/L),[2],K (Log of liquid dish neat product liquid-air partition coefficient greater than or equal to −7)
CCCC(O)CCC1C(C)CCCC1(C)C (centres unmarked) [Material 1063],Log of liquid dish neat product liquid-air partition coefficient (Comment Code K/L),[2],K (Log of liquid dish neat product liquid-air partition coefficient greater than or equal to −7)
CC1/C=C/CCCCCCCCCCC(=O)C1 (centres unmarked) [Material 80],Log of liquid dish neat product liquid-air partition coefficient (Comment Code K/L),[2]; [3],K (Log of liquid dish neat product liquid-air partition coefficient greater than or equal to −7)
CCC(C)CCCC(C)C=O (centres unmarked) [Material 866],Probability of Ingredient Color Instability (Comment Code E/F),[1],F (Probability of Ingredient Color Instability<71%)
CC1=CCOC(c2ccccc2)C1 (centres unmarked) [Material 1016],Log of liquid dish neat product liquid-air partition coefficient (Comment Code K/L),[2],K (Log of liquid dish neat product liquid-air partition coefficient greater than or equal to −7)
CC1(C)C2CC=C(C=O)C1C2 (centres unmarked) [Material 70],Probability of Ingredient Color Instability (Comment Code E/F),[1]; [3],F (Probability of Ingredient Color Instability<71%)
CCC(=O)OCC=Cc1ccccc1 [Material 548],Log of liquid dish neat product liquid-air partition coefficient (Comment Code K/L),[2]; [3],K (Log of liquid dish neat product liquid-air partition coefficient greater than or equal to −7)
CC1(C)C2=C(CO)CCC(C)(C)C23CCC1C3 (centres unmarked) [Material 248],Comment Code: Log of liquid dish neat product liquid-air partition coefficient,[2],K (Log of liquid dish neat product liquid-air partition coefficient greater than or equal to −7)
